Data published in article PMC8927846 (Materials Today Bio, 2022).

Experiments:
[1] = biological target: transferrin receptor (TfR); conditions: read-out: Dissociation constant Kd to TfR; cited from earlier work
[2] = tested on: HBEC; assay: Confocal imaging of uptake in HBEC; assay type: cell-based, human; conditions: 125 nM AF 488-Tf, 1250 nM unlabeled Tf, 1 h, 37 °C
[3] = tested on: hiPS-BMEC; assay: Confocal imaging of uptake and colocalization in hiPS-BMEC; assay type: cell-based, human; conditions: 125 nM AF 488-Tf, 1250 nM unlabeled Tf, 1 h, 37 °C
[4] = tested on: hiPS-BMEC (human iPS-derived BMEC-like cells) monolayer; assay: Transwell permeability across hiPS-BMEC monolayer; assay type: in vitro ADME; conditions: cys-T7 versus cys-Tfr-T12 peptide

Substance | Kd [1] | also measured
Tf: unlabeled transferrin, the native ligand of TfR | 2.8 nM | –
THRPPMWSPVWP [Tfr-T12 peptide] | 15 nM | –
AF 488-Tf: Alexa Fluor 488 labeled transferrin | – | Internalization on co-incubation with 10-fold excess of unlabeled Tf [2]: reduced internalization; Internalization on co-incubation with 10-fold excess of unlabeled Tf [3]: reduced internalization
HAIYPRH [T7 peptide] | 10 nM | –
CHAIYPRH [cys-T7 peptide] | – | Permeability compared between the two peptides [4]: higher permeability
